The assay has as its target T1, human glucagon receptor (Homo sapiens, UniProt P47871).
T1 construct: expressed in transfected cells; host or cells: BHK cells (parent BHK570, CRE luciferase clone BHK/KZ10-20-48), clone pLJ6'-4-25
The experiment in a line: Glucagon receptor binding, 125I-glucagon displacement SPA on isolated membranes. To be noted: displacement of 125I-glucagon from membranes; read-out: IC50 GlucR. The gist of the method:
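Membranes from BHK cells stably expressing human glucagon receptor incubated 2 h at 25 °C with [125I]-glucagon (25 μl of 480 pM solution) and serial compound dilutions in WGA SPA format, pH 7.4 buffer with 0.1% ovalbumin. Albumin at max 0.001% or 0.2% final. IC50 from non-linear regression.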

Numbered stars: 1 amine (or outer) side, 2 acyl side, 3 side chain; on linkers, the order of the positions; unused ones are H or OH. Square brackets hold non-standard residues; d marks the D form. Side chains are listed from the residue outwards. Peptide text beside a SMILES is read from it. * marks the point of attachment. C18 diacid = O=C(O)CCCCCCCCCCCCCCCCC(=O)*; γGlu = O=C(O)[C@H](CCC(=O)[*:2])N[*:1]; Ac4c = NC1(C(=O)O)CCC1; AEEA = NCCOCCOCC(=O)O; Aib = CC(C)(N)C(=O)O

T1 sequence (P47871 26-477): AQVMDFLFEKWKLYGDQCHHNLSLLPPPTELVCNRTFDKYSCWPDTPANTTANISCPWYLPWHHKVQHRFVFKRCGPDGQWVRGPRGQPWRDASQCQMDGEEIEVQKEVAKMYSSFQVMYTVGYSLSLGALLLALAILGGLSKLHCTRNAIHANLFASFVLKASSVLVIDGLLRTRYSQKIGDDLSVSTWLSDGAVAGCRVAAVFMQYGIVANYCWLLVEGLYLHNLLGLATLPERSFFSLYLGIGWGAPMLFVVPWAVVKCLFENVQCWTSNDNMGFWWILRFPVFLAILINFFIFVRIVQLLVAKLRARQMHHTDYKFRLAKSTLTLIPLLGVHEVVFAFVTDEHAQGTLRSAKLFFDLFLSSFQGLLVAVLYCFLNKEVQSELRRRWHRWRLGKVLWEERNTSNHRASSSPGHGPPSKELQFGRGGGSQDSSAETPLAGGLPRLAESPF

For `CC(C)C[C@H](NC(=O)[C@H](Cc1ccc(O)cc1)NC(=O)[C@H](CCCNC(=N)N)NC(=O)[C@H](CO)NC(=O)[C@H](CC(C)C)NC(=O)[C@H](CC(=O)O)NC(=O)[C@H](CO)NC(=O)[C@@H](NC(=O)[C@H](Cc1ccccc1)NC(=O)[C@@H](NC(=O)CNC(=O)[C@H](CCC(N)=O)NC(=O)C1(NC(=O)[C@@H](N)Cc2c[nH]cn2)CCC1)[C@@H](C)O)[C@@H](C)O)C(=O)N[C@@H](CCC(=O)O)C(=O)N[C@@H](CO)C(=O)N[C@@H](CCCNC(=N)N)C(=O)N[C@@H](CCCNC(=N)N)C(=O)N[C@@H](C)C(=O)N[C@@H](CCCNC(=N)N)C(=O)N[C@@H](CCC(=O)O)C(=O)N[C@@H](Cc1ccccc1)C(=O)N[C@H](C(=O)N[C@@H](CCC(N)=O)C(=O)N[C@@H](Cc1c[nH]c2ccccc12)C(=O)N[C@@H](CC(C)C)C(=O)N[C@@H](CC(C)C)C(=O)N[C@@H](CCCCNC(=O)CC[C@H](NC(=O)CC[C@H](NC(=O)COCCOCCNC(=O)COCCOCCNC(=O)CC[C@H](NC(=O)CC[C@H](NC(=O)CCCCCCCCCCCCCCCCC(=O)O)C(=O)O)C(=O)O)C(=O)O)C(=O)O)C(=O)N[C@H](C(N)=O)[C@@H](C)O)C(C)C` [Example 59, N^ε28-[(4S)-4-carboxy-4-[[(4S)-4-carboxy-4-[[2-[2-[2-[[2-[2-[2-[[(4S)-4-carboxy-4-[[(4S)-4-carboxy-4-(17-carboxyheptadecanoylamino)butanoyl]amino]butanoyl]amino]ethoxy]ethoxy]acetyl]amino]ethoxy]ethoxy]acetyl]amino]butanoyl]amino]butanoyl]-[Acb2,Leu10,Arg12,Glu15,Arg20,Glu21,Leu27,Lys28]-Glucagon amide] (H-H[Ac4c]QGTFTSDLSRYLESRRAREFVQWLLK([γGlu-γGlu-AEEA-AEEA-γGlu-γGlu-C18 diacid])T-NH2; N-terminus assumed), the IC50 was found to be 1.4 nM.
On to `CC(C)C[C@H](NC(=O)[C@H](Cc1ccc(O)cc1)NC(=O)[C@H](CCCCN)NC(=O)[C@H](CO)NC(=O)[C@H](CC(C)C)NC(=O)[C@H](CC(=O)O)NC(=O)[C@H](CO)NC(=O)[C@@H](NC(=O)[C@H](Cc1ccccc1)NC(=O)[C@@H](NC(=O)CNC(=O)[C@H](CCC(N)=O)NC(=O)C(C)(C)NC(=O)[C@@H](N)Cc1c[nH]cn1)[C@@H](C)O)[C@@H](C)O)C(=O)N[C@@H](CCC(=O)O)C(=O)N[C@@H](CO)C(=O)N[C@@H](CCCNC(=N)N)C(=O)N[C@@H](CCCNC(=N)N)C(=O)N[C@@H](C)C(=O)N[C@@H](CCCNC(=N)N)C(=O)N[C@@H](CCC(=O)O)C(=O)N[C@@H](Cc1ccccc1)C(=O)N[C@H](C(=O)N[C@@H](CCC(N)=O)C(=O)N[C@@H](Cc1c[nH]c2ccccc12)C(=O)N[C@@H](CC(C)C)C(=O)N[C@@H](CC(C)C)C(=O)N[C@@H](CCCCNC(=O)CC[C@H](NC(=O)CC[C@H](NC(=O)COCCOCCNC(=O)COCCOCCNC(=O)CC[C@H](NC(=O)CC[C@H](NC(=O)CCCCCCCCCCCCCCCCC(=O)O)C(=O)O)C(=O)O)C(=O)O)C(=O)O)C(=O)N[C@H](C(N)=O)[C@@H](C)O)C(C)C` [Example 60, N^ε28-[(4S)-4-carboxy-4-[[(4S)-4-carboxy-4-[[2-[2-[2-[[2-[2-[2-[[(4S)-4-carboxy-4-[[(4S)-4-carboxy-4-(17-carboxyheptadecanoylamino)butanoyl]amino]butanoyl]amino]ethoxy]ethoxy]acetyl]amino]ethoxy]ethoxy]acetyl]amino]butanoyl]amino]butanoyl]-[Aib2,Leu10,Glu15,Arg20,Glu21,Leu27,Lys28]-Glucagon amide] (H-H[Aib]QGTFTSDLSKYLESRRAREFVQWLLK([γGlu-γGlu-AEEA-AEEA-γGlu-γGlu-C18 diacid])T-NH2; N-terminus assumed), for which the 50% inhibitory concentration (IC50) is 4 nM.
For `CC(C)C[C@H](NC(=O)[C@H](Cc1ccc(O)cc1)NC(=O)[C@H](CCCCN)NC(=O)[C@H](CO)NC(=O)[C@H](CC(C)C)NC(=O)[C@H](CC(=O)O)NC(=O)[C@H](CO)NC(=O)[C@@H](NC(=O)[C@H](Cc1ccccc1)NC(=O)[C@@H](NC(=O)CNC(=O)[C@H](CCC(N)=O)NC(=O)C1(NC(=O)[C@@H](N)Cc2c[nH]cn2)CCC1)[C@@H](C)O)[C@@H](C)O)C(=O)N[C@@H](CCC(=O)O)C(=O)N[C@@H](CO)C(=O)N[C@@H](CCCNC(=N)N)C(=O)N[C@@H](CCCNC(=N)N)C(=O)N[C@@H](C)C(=O)N[C@@H](CCCNC(=N)N)C(=O)N[C@@H](CCC(=O)O)C(=O)N[C@@H](Cc1ccccc1)C(=O)N[C@H](C(=O)N[C@@H](CCC(N)=O)C(=O)N[C@@H](Cc1c[nH]c2ccccc12)C(=O)N[C@@H](CC(C)C)C(=O)N[C@@H](CC(C)C)C(=O)N[C@@H](CCCCNC(=O)CC[C@H](NC(=O)CC[C@H](NC(=O)COCCOCCNC(=O)COCCOCCNC(=O)CC[C@H](NC(=O)CC[C@H](NC(=O)CCCCCCCCCCCCCCCCC(=O)O)C(=O)O)C(=O)O)C(=O)O)C(=O)O)C(=O)N[C@H](C(N)=O)[C@@H](C)O)C(C)C` [Example 61, N^ε28-[(4S)-4-carboxy-4-[[(4S)-4-carboxy-4-[[2-[2-[2-[[2-[2-[2-[[(4S)-4-carboxy-4-[[(4S)-4-carboxy-4-(17-carboxyheptadecanoylamino)butanoyl]amino]butanoyl]amino]ethoxy]ethoxy]acetyl]amino]ethoxy]ethoxy]acetyl]amino]butanoyl]amino]butanoyl]-[Acb2,Leu10,Glu15,Arg20,Glu21,Leu27,Lys28]-Glucagon amide] (H-H[Ac4c]QGTFTSDLSKYLESRRAREFVQWLLK([γGlu-γGlu-AEEA-AEEA-γGlu-γGlu-C18 diacid])T-NH2; N-terminus assumed), the IC50 stood at 1.8 nM.
Regarding `CC(C)C[C@H](NC(=O)[C@H](Cc1ccc(O)cc1)NC(=O)[C@H](CCCNC(=N)N)NC(=O)[C@H](CO)NC(=O)[C@H](CC(C)C)NC(=O)[C@H](CC(=O)O)NC(=O)[C@H](CO)NC(=O)[C@@H](NC(=O)[C@H](Cc1ccccc1)NC(=O)[C@@H](NC(=O)CNC(=O)[C@H](CCC(N)=O)NC(=O)C(C)(C)NC(=O)[C@@H](N)Cc1c[nH]cn1)[C@@H](C)O)[C@@H](C)O)C(=O)N[C@@H](CC(=O)O)C(=O)N[C@@H](C)C(=O)N[C@@H](CCCNC(=N)N)C(=O)N[C@@H](CCCNC(=N)N)C(=O)N[C@@H](C)C(=O)N[C@@H](CCCNC(=N)N)C(=O)N[C@@H](CC(=O)O)C(=O)N[C@@H](Cc1ccccc1)C(=O)N[C@H](C(=O)N[C@@H](CCC(N)=O)C(=O)N[C@@H](Cc1c[nH]c2ccccc12)C(=O)N[C@@H](CC(C)C)C(=O)N[C@@H](CC(C)C)C(=O)N[C@@H](CCCCNC(=O)CC[C@H](NC(=O)CC[C@H](NC(=O)CC[C@H](NC(=O)CCCCCCCCCCCCCCCCC(=O)O)C(=O)O)C(=O)O)C(=O)O)C(=O)N[C@H](C(N)=O)[C@@H](C)O)C(C)C` [Example 62, N^ε28-[(4S)-4-carboxy-4-[[(4S)-4-carboxy-4-[[(4S)-4-carboxy-4-(17-carboxyheptadecanoylamino)butanoyl]amino]butanoyl]amino]butanoyl]-[Aib2,Leu10,Arg12,Ala16,Arg20,Leu27,Lys28]-Glucagon amide] (H-H[Aib]QGTFTSDLSRYLDARRARDFVQWLLK([γGlu-γGlu-γGlu-C18 diacid])T-NH2; N-terminus assumed), the IC50 is 3.9 nM.
On to `CC(C)C[C@H](NC(=O)[C@H](Cc1ccc(O)cc1)NC(=O)[C@H](CCCCN)NC(=O)[C@H](CO)NC(=O)[C@H](CC(C)C)NC(=O)[C@H](CC(=O)O)NC(=O)[C@H](CO)NC(=O)[C@@H](NC(=O)[C@H](Cc1ccccc1)NC(=O)[C@@H](NC(=O)CNC(=O)[C@H](CCC(N)=O)NC(=O)C(C)(C)NC(=O)[C@@H](N)Cc1c[nH]cn1)[C@@H](C)O)[C@@H](C)O)C(=O)N[C@@H](CCC(=O)O)C(=O)N[C@@H](CO)C(=O)N[C@@H](CCCNC(=N)N)C(=O)N[C@@H](CCCNC(=N)N)C(=O)N[C@@H](C)C(=O)N[C@@H](CCCNC(=N)N)C(=O)N[C@@H](CCC(=O)O)C(=O)N[C@@H](Cc1ccccc1)C(=O)N[C@H](C(=O)N[C@@H](CCC(N)=O)C(=O)N[C@@H](Cc1c[nH]c2ccccc12)C(=O)N[C@@H](CC(C)C)C(=O)N[C@@H](CC(C)C)C(=O)N[C@@H](CCCCNC(=O)CC[C@H](NC(=O)CC[C@H](NC(=O)[C@H](CO)NC(=O)[C@H](CCC(=O)O)NC(=O)[C@H](CO)NC(=O)CC[C@H](NC(=O)CC[C@H](NC(=O)CCCCCCCCCCCCCCCCC(=O)O)C(=O)O)C(=O)O)C(=O)O)C(=O)O)C(=O)N[C@H](C(N)=O)[C@@H](C)O)C(C)C` [Example 67, N^ε28-[(4S)-4-carboxy-4-[[(4S)-4-carboxy-4-[[(2S)-2-[[(2S)-4-carboxy-2-[[(2S)-2-[[(4S)-4-carboxy-4-[[(4S)-4-carboxy-4-(17-carboxyheptadecanoylamino)butanoyl]amino]butanoyl]amino]-3-hydroxypropanoyl]amino]butanoyl]amino]-3-hydroxypropanoyl]amino]butanoyl]amino]butanoyl]-[Aib2,Leu10,Glu15,Arg20,Glu21,Leu27,Lys28]-Glucagon amide] (H-H[Aib]QGTFTSDLSKYLESRRAREFVQWLLK([γGlu-γGlu-Ser-Glu-Ser-γGlu-γGlu-C18 diacid])T-NH2; N-terminus assumed), for which the IC50 stood at 1.5 nM.

The values above are taken from patent publication US9474790B2, “Stable, protracted GLP-1/glucagon receptor co-agonists for medical use” (Novo Nordisk A/S, priority 2013, dated 2016).
